Values of other authors in patent US20090297541A1, “MATURATION OF DENDRITIC CELLS” (priority 2006, published 2009).

Experiments:
monocyte-derived DCs = details: MPLA alone at concentrations up to 100 μg/ml
immature DCs = details: MPLA at low doses (under 50 μg/ml)
IFNGR1 chain = details: high affinity

Substance | migration and functional maturation of DCs in vivo (murine DCs) | production of IL-12p70 or IL-10 (monocyte-derived DCs) | impact on DC maturation (monitored by IL-12 production) (immature DCs) | Kd (IFNGR1 chain) [nM]
Monophosphoryl lipid A [MPLA] | induces the migration and functional maturation of murine DCs in vivo | failed to induce any significant production of IL-12p70 or IL-10 | no impact on DC maturation | –
IFN-gamma: cytokine, homodimer of two noncovalently bound polypeptide subunits; IFNγ receptor agonist | – | – | – | ~1
